The text below walks through data of EP0731710B1, “THYMOSINE ALPHA 1 CONTAINING COMPOSITIONS FOR THE TREATMENT OF PATIENTS HAVING DECOMPENSATED LIVER DISEASE” (ALPHA 1 BIOMEDICALS, INC., priority 1993, dated 2003).

This series can be described thus: Tolerability / adverse effects of Thymosin alpha 1 in patients with cirrhosis and hepatic decompensation. It is filed as in vivo, patient. Here is the method:
Patient 2 was a person with very far-advanced cirrhosis secondary to long-standing chronic Hepatitis B infection. Their findings included jaundice, weakness, severe encephalopathy, hepato-renal syndrome with renal failure, and portal gastropathy secondary to increased portal vein pressure. They received Thymosin alpha 1 at a dose of 1.6 mg subcutaneously twice weekly under a compassionate use protocol in an attempt to cure their Hepatitis B virus infection so that they could received a liver transplant. […] Death was associated with complications of portal hypertension and cirrhosis, and not due to therapy with Thymosin alpha 1.
They were started on Thymosin alpha 1 at a dose of 1.6 mg subcutaneously twice weekly, with the intention of treating them for 26 weeks. […] However, their therapy was discontinued after 46 injections because of complications of the cirrhosis. They expired about three weeks after their last injection. Their death was attributed to bleeding esophageal varices and hepatoma.
In summary, the above three patients with cirrhosis and hepatic decompensation received Thymosin alpha 1 at a dose of 1.6 mg subcutaneously twice weekly for periods varying from 3.5 weeks to 6 months. In each case, the intent of therapy was to cure chronic Hepatitis B virus infection so that the patient could be considered for transplant. […] Two other patients, both of whom had far-advanced disease, died of complications of cirrhosis, with no evidence that Thymosin alpha 1 contributed to their deaths.

No end group written: not given here.

Consider “Ac-SDAAVDTSSEITTKDLKEKKEVVEEAEN [Thymosin alpha 1]”, for which, for the setting “Patient 2, 1.6 mg subcutaneously twice weekly, 3 1/2 weeks of therapy”, the side effects entry is listed as “no side effects”. Also, the adverse effects entry (Patient 3, 1.6 mg subcutaneously twice weekly, 46 injections) is “no adverse effects”. In addition, the “adverse effects due to Tα1” value (three patients with cirrhosis and hepatic decompensation, 1.6 mg subcutaneously twice weekly for 3.5 weeks to 6 months) is given as “None of the patients reported any adverse effects”.
